Laboratory results reported in patent US20170275270A1, “BENZYL SUBSTITUTED INDAZOLES” (Bayer Pharma Aktiengesellschaft, priority 2014, published 2017).
“And” between values parts separate entries of the source, which are not always exact repeats. Identical values can stand only once.

These compounds were tested against T1, catalytic domain of human Bub1 (amino acids 704-1085) (Homo sapiens, UniProt O43683) (assay: Bub1 kinase assay (TR-FRET)). Conditions: 10 μM ATP, read-out: Biological Assay 1: Bub1 kinase assay median IC50.
T1 construct: catalytic domain of human Bub1 (amino acids 704-1085); His6 (N); made in house; host or cells: Hi5 insect cells
T1 sequence (O43683 704-1085): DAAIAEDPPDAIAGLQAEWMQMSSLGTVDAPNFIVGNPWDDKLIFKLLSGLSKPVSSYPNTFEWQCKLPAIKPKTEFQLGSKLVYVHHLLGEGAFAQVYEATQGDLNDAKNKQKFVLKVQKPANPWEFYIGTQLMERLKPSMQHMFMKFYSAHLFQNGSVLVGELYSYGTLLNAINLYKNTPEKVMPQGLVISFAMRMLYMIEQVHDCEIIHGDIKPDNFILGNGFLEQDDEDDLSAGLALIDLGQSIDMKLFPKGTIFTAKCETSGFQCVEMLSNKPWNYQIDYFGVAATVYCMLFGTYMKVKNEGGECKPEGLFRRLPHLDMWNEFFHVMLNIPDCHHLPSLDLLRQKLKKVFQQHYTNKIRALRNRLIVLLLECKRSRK
Type: biochemical
Procedure: To this end, 100-fold concentrated compound solutions (in DMSO) were previously prepared by serial dilution (1:3.4) of 2 mM stocks in a clear low volume 384-well source microtiter plate (Greiner Bio-One, Frickenhausen, Germany), from which 50 nL of compounds were transferred into a black low volume test microtiter plate from the same supplier. […] The resulting mixture (5 μL final volume) was incubated at 22° C. during 60 min., and the reaction was stopped by the addition of 5 μL of an aqueous EDTA-solution (50 mM EDTA, in 100 mM HEPES pH 7.5 and 0.2% (w/v) bovine serum albumin) which also contained the TR-FRET detection reagents (0.2 μM streptavidin-XL665 [Cisbio Bioassays, Codolet, France] and 1 nM anti-phosho-Serine antibody [Merck Millipore, cat. #35-001] and 0.4 nM LANCE EU-W1024 labeled anti-mouse IgG antibody [Perkin-Elmer, product no. AD0077, alternatively a Terbium-cryptate-labeled anti-mouse IgG antibody from Cisbio Bioassays can be used]). The stopped reaction mixture was further incubated 1 h at 22° C. in order to allow the formation of complexes between peptides and detection reagents. Subsequently, the amount of product was evaluated by measurement of the resonance energy transfer from the Eu-chelate-antibody complex recognizing the Phosphoserine residue to the streptavidin-XL665 bound to the biotin moiety of the peptide. […] IC50 values were calculated by fitting the normalized inhibition data to a 4-parameter logistic equation (Minimum, Maximum, IC50, Hill; Y=Max+(Min−Max)/(1+(X/IC50) Hill)).
Work on `COCCOc1cc(F)c(Cn2nc(-c3nc(Nc4ccncc4OC)cc(C(C)C)n3)c3ccccc32)c(F)c1` [Example 2-12-73, 2-{1-[2,6-difluoro-4-(2-methoxyethoxy)benzyl]-1H-indazol-3-yl}-6-isopropyl-N-(3-methoxypyridin-4-yl)pyrimidin-4-amine] yielded an IC50 of 15 nM. With `COCCOc1cc(F)c(Cn2nc(-c3nc(Nc4cc(C)ncc4C)cc(C(C)C)n3)c3ccccc32)c(F)c1` [Example 2-12-74, 2-{1-[2,6-difluoro-4-(2-methoxyethoxy)benzyl]-1H-indazol-3-yl}-N-(2,5-dimethylpyridin-4-yl)-6-isopropylpyrimidin-4-amine] the IC50 was 180 nM. Work on `COCCOc1cc(F)c(Cn2nc(-c3nc(C)c(C)c(Nc4ccncc4OC)n3)c3ccccc32)c(F)c1` [Example 2-12-76, 2-{1-[2,6-difluoro-4-(2-methoxyethoxy)benzyl]-1H-indazol-3-yl}-N-(3-methoxypyridin-4-yl)-5,6-dimethylpyrimidin-4-amine] yielded an IC50 of 6.2 nM. Compound `COCCOc1cc(F)c(Cn2nc(-c3nc(C)cc(Nc4ccncc4OC)n3)c3ccccc32)c(F)c1` [Example 2-12-77, 2-{1-[2,6-difluoro-4-(2-methoxyethoxy)benzyl]-1H-indazol-3-yl}-N-(3-methoxypyridin-4-yl)-6-methylpyrimidin-4-amine] has an IC50 of 6.7 nM. For `COCCOc1cc(F)c(Cn2nc(-c3nc(C)cc(Nc4ccncc4OC(F)(F)F)n3)c3ccccc32)c(F)c1` [Example 2-12-78, 2-{1-[2,6-difluoro-4-(2-methoxyethoxy)benzyl]-1H-indazol-3-yl}-6-methyl-N-[3-(trifluoromethoxy)pyr-idin-4-yl]pyrimidin-4-amine], the IC50 was 12 nM. `CCOc1cc(F)c(Cn2nc(-c3nc(C)cc(Nc4ccncc4O)n3)c3ccccc32)c(F)c1` [Example 2-12-80, 4-({2-[1-(4-ethoxy-2,6-difluorobenzyl)-1H-indazol-3-yl]-6-methylpyrimidin-4-yl}amino)pyridin-3-ol] was tested, and the IC50 was 51 nM.

Same assay, conditions: Biological Assay 1: Bub1 kinase assay median IC50, 10 μM ATP
Compound `COCCOc1cc(F)c(Cn2nc(-c3nc4c(c(Nc5cc(C)ncc5C)n3)CCC4)c3ccccc32)c(F)c1` [Example 2-12-57, 2-{1-[2,6-difluoro-4-(2-methoxyethoxy)benzyl]-1H-indazol-3-yl}-N-(2,5-dimethylpyridin-4-yl)-6,7-dihydro-5H-cyclopenta[d]pyrimidin-4-amine] has an IC50 of 130 nM. With `COCCOc1cc(F)c(Cn2nc(-c3nc4c(c(Nc5cc(C)ncc5F)n3)CCC4)c3ccccc32)c(F)c1` [Example 2-12-58, 2-{1-[2,6-difluoro-4-(2-methoxyethoxy)benzyl]-1H-indazol-3-yl}-N-(5-fluoro-2-methylpyridin-4-yl)-6,7-dihydro-5H-cyclopenta[d]pyrimidin-4-amine] the IC50 was 17 nM. `COCCOc1cc(F)c(Cn2nc(-c3nc4c(c(Nc5ccncc5OC)n3)CCCCC4)c3ccccc32)c(F)c1` [Example 2-12-70, 2-{1-[2,6-difluoro-4-(2-methoxyethoxy)benzyl]-1H-indazol-3-yl}-N-(3-methoxypyridin-4-yl)-6,7,8,9-tetrahydro-5H-cyclohepta[d]pyrimidin-4-amine] gave an IC50 of 9.9 nM. `COCCOc1cc(F)c(Cn2nc(-c3nc(C)cc(Nc4ccnc(C)n4)n3)c3ccccc32)c(F)c1` [Example 2-12-71, 2-{1-[2,6-difluoro-4-(2-methoxyethoxy)benzyl]-1H-indazol-3-yl}-6-methyl-N-(2-methylpyrimidin-4-yl)pyrimidin-4-amine] was tested, and the IC50 was 75 nM. Compound `COCCOc1cc(F)c(Cn2nc(-c3nc(Nc4ccnc(C)n4)cc(C(C)C)n3)c3ccccc32)c(F)c1` [Example 2-12-72, 2-{1-[2,6-difluoro-4-(2-methoxyethoxy)benzyl]-1H-indazol-3-yl}-6-isopropyl-N-(2-methylpyrimidin-4-yl)pyrimidin-4-amine] has an IC50 of 670 nM. Work on `COCCOc1cc(F)c(Cn2nc(-c3nc(C)c(F)c(Nc4ccnc(C)n4)n3)c3ccccc32)c(F)c1` [Example 2-12-75, 2-{1-[2,6-difluoro-4-(2-methoxyethoxy)benzyl]-1H-indazol-3-yl}-5-fluoro-6-methyl-N-(2-methylpyrimidin-4-yl)pyrimidin-4-amine] yielded an IC50 of 180 nM. For `CCOc1cc(F)c(Cn2nc(-c3nc(Nc4ccnc(C)n4)cc(-c4sc(C)nc4C)n3)c3ccccc32)c(F)c1` [Example 2-12-84, 6-(2,4-dimethyl-1,3-thiazol-5-yl)-2-[1-(4-ethoxy-2,6-difluorobenzyl)-1H-indazol-3-yl]-N-(2-methylpyrimidin-4-yl)pyrimidin-4-amine], the IC50 was 2300 nM. `CCOc1cc(F)c(Cn2nc(-c3nc(Nc4ccncn4)cc(-c4sc(C)nc4C)n3)c3ccccc32)c(F)c1` [Example 2-12-85, 6-(2,4-dimethyl-1,3-thiazol-5-yl)-2-[1-(4-ethoxy-2,6-difluorobenzyl)-1H-indazol-3-yl]-N-(pyrimidin-4-yl)pyrimidin-4-amine] was tested, and the IC50 was 6000 nM. Work on `CCOc1cc(F)c(Cn2nc(-c3nc(Nc4ccnc(C)n4)cc(C4CCOCC4)n3)c3ccccc32)c(F)c1` [Example 2-12-89, 2-[1-(4-ethoxy-2,6-difluorobenzyl)-1H-indazol-3-yl]-N-(2-methylpyrimidin-4-yl)-6-(tetrahydro-2H-pyran-4-yl)pyrimidin-4-amine] yielded an IC50 of 1100 nM. In the case of `CCOc1cc(F)c(Cn2nc(-c3nc(Nc4ccnc(NC(C)=O)c4)cc(C4CCOCC4)n3)c3ccccc32)c(F)c1` [Example 2-12-90, N-[4-({2-[1-(4-ethoxy-2,6-difluorobenzyl)-1H-indazol-3-yl]-6-(tetrahydro-2H-pyran-4-yl)pyrimidin-4-yl}amino)pyridin-2-yl]acetamide], the IC50 is reported as 11 nM. For `CCOc1cc(F)c(Cn2nc(-c3nc(Nc4ccnc(C)n4)cc(-c4nccs4)n3)c3ccccc32)c(F)c1` [Example 2-12-96, 2-[1-(4-ethoxy-2,6-difluorobenzyl)-1H-indazol-3-yl]-N-(2-methylpyrimidin-4-yl)-6-(1,3-thiazol-2-yl)pyrimidin-4-amine], the IC50 was > 20000 nM and 9200 nM. `COCCOc1cc(F)c(Cn2nc(-c3nc4c(c(Nc5ccncc5OC)n3)COCC4)c3ccccc32)c(F)c1` [Example 2-12-99, 2-{1-[2,6-difluoro-4-(2-methoxyethoxy)benzyl]-1H-indazol-3-yl}-N-(3-methoxypyridin-4-yl)-7,8-dihydro-5H-pyrano[4,3-d]pyrimidin-4-amin] gave an IC50 of 26 nM. For `COCCOc1cc(F)c(Cn2nc(-c3nc4c(c(Nc5ccnc(C)n5)n3)COCC4)c3ccccc32)c(F)c1` [Example 2-12-100, 2-{1-[2,6-difluoro-4-(2-methoxyethoxy)benzyl]-1H-indazol-3-yl}-N-(2-methylpyrimidin-4-yl)-7,8-dihydro-5H-pyrano[4,3-d]pyrimidin-4-amine], the IC50 was 99 nM. `CCOc1cc(F)c(Cn2nc(-c3nc4c(c(Nc5ccncc5Cl)n3)CCC4)c3ccccc32)c(F)c1` [Example 2-14-7, N-(3-chloropyridin-4-yl)-2-[1-(4-ethoxy-2,6-difluorobenzyl)-1H-indazol-3-yl]-6,7-dihydro-5H-cyclopenta[d]pyrimidin-4-amine] gave an IC50 of 9.7 nM. With `CCOc1cc(F)c(Cn2nc(-c3nc4c(c(Nc5ccncc5C5CC5)n3)CCC4)c3ccccc32)c(F)c1` [Example 2-14-8, N-(3-cyclopropylpyridin-4-yl)-2-[1-(4-ethoxy-2,6-difluorobenzyl)-1H-indazol-3-yl]-6,7-dihydro-5H-cyclopenta[d]pyrimidin-4-amine] the IC50 was 8.2 nM. Compound `CCOc1cc(F)c(Cn2nc(-c3nc4c(c(Nc5ccncc5)n3)COC4)c3ccccc32)c(F)c1` [Example 2-14-10, 2-[1-(4-ethoxy-2,6-difluorobenzyl)-1H-indazol-3-yl]-N-(pyridin-4-yl)-5,7-dihydrofuro[3,4-d]pyrimidin-4-amine] has an IC50 of 7 nM. `COCCOc1cc(F)c(Cn2nc(-c3nc4c(c(Nc5ccnc(C)n5)n3)CCC(C)(C)C4)c3ccccc32)c(F)c1` [Example 2-15-9, 2-{1-[2,6-difluoro-4-(2-methoxyethoxy)benzyl]-1H-indazol-3-yl}-7,7-dimethyl-N-(2-methylpyrimidin-4-yl)-5,6,7,8-tetrahydroquinazolin-4-amine] showed an IC50 of 81 nM. `COCCOc1cc(F)c(Cn2nc(-c3nc4c(c(Nc5ccncc5Cl)n3)CCC(C)(C)C4)c3ccccc32)c(F)c1` [Example 2-15-10, N-(3-chloropyridin-4-yl)-2-{1-[2,6-difluoro-4-(2-methoxyethoxy)benzyl]-1H-indazol-3-yl}-7,7-dimethyl-5,6,7,8-tetrahydroquinazolin-4-amine] showed an IC50 of 1400 nM. `COCCOc1cc(F)c(Cn2nc(-c3nc4c(c(Nc5ccncc5OC)n3)CCC(C)(C)C4)c3ccccc32)c(F)c1` [Example 2-15-11, 2-{1-[2,6-difluoro-4-(2-methoxyethoxy)benzyl]-1H-indazol-3-yl}-N-(3-methoxypyridin-4-yl)-7,7-dimethyl-5,6,7,8-tetrahydroquinazolin-4-amine] was tested, and the IC50 was 1700 nM. For `COCCOc1cc(F)c(Cn2nc(-c3nc4c(c(Nc5ccnc(NC(C)=O)c5)n3)CCC(C)(C)C4)c3ccccc32)c(F)c1` [Example 2-15-12, N-{4-[(2-{1-[2,6-difluoro-4-(2-methoxyethoxy)benzyl]-1H-indazol-3-yl}-7,7-dimethyl-5,6,7,8-tetrahydroquinazolin-4-yl)amino]pyridin-2-yl}acetamide], the IC50 was 21 nM.
